Data taken from patent US6204220A, “Substituted 2-oxo-3-alkynoic acids and methods of use thereof” (Rutgers, The State University of New Jersey, priority 1999, dated 2001).
Like-named read-outs stand apart in the source and are kept apart here.

Key:
Assay type in all cases: biochemical
[1] = target: T1, Pyruvate oxidase from Lactobacillus plantarum (Lactiplantibacillus plantarum, UniProt P37063); assay: Inactivation of pyruvate oxidase (POX); details: for kinact/KI: read-out: kc/Ki,c (converted)
T1 construct: purchased Boehringer Mannheim (a gift, not bought)
T1 sequence (P37063 1-603): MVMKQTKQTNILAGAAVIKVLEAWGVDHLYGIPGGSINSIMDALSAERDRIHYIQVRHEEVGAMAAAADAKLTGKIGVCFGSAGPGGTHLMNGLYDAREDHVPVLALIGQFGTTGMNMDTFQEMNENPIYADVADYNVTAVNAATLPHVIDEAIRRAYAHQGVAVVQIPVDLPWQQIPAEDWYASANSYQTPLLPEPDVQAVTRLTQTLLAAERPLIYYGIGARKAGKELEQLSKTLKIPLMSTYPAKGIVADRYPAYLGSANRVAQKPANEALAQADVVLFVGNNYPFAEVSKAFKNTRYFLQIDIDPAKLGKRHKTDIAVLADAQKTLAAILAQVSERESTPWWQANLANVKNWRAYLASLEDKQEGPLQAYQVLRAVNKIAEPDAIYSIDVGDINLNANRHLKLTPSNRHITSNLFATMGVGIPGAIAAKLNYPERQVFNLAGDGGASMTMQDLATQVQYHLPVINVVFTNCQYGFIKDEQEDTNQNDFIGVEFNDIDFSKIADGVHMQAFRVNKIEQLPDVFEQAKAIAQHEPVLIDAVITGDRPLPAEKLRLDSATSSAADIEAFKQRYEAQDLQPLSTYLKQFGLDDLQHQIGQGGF
Description: Pyruvate oxidase from Lactobacillus plantarum was a gift from Boehringer Mannheim and was assayed according to the manufacturer's instructions at 25° C. by measuring the rate of 4-quinonimine production from H2 O2, 3,5-dichlorophenolsulfonic acid and 4-aminoantipyrine in the presence of horseradish peroxidase, at 546 nm, using a Cobas-Bio (Roche Diagnostics, Somerville, N.J.) automated centrifugal analyzer. The assay reaction mixture (total vol. 0.25 mL) contained: 40 mM sodium pyruvate; 50 mM potassium phosphate buffer, pH 6.5 with 10% (v/v) glycerol; 6.8 mM 3,5-dichlorophenolsulfonic acid; 0.03% of 4-aminoantipyrine; and 5u/mL of horseradish peroxidase. The reaction was initiated by adding POX.

[2] = target: PDHc (Escherichia coli, UniProt P0AFG8); assay: Steady-state kinetics of PDHc, Km / [S]0.5 for pyruvate; set-up: made in house; host or cells: E. coli JRG1342 (PDHc null), Ptac plasmid pGS523; details: 3-lip PDHc; 0.22 mM without reagent
Description: Activity and related measurements on PDHc. The overall enzymatic reaction of the PDH complex was assayed using a Varian DMS 300 spectrophotometer or the Cobas Bio (Roche Diagnostics, Somerville, N.J.) automated centrifugal analyzer, monitoring the pyruvate-dependent reduction of NAD^+ at 340 nm. The reaction medium contained in 1 mL (DMS 300) or 0.25 mL (Cobas-Bio) test volume: 0.1 M Tris-HCl, pH 8.0; 1 mM MgCl2; 2 mM sodium pyruvate; 2.5 mM NAD^+; 0.052-0.2 mM coenzyme A; 0.2 mM ThDP; and 2.6 mM DTT at 27° C. The reaction was initiated either by adding enzyme to a mixture of all other components, or by adding CoA.
The Michaelis-Menten constants (Km) for native PDHc and PDHc treated with 2-oxo-3-butynoic acid and 2-oxo-3-heptynoic acid were obtained by fitting steady-state rates at different pyruvate concentrations to the Hill equation and the logarithmic form of the Hill equation using the Delta Graph (Pro4) computer program.

[3] = target: T2, Pyruvate decarboxylase from Saccharomyces cerevisiae (Saccharomyces cerevisiae, UniProt P06169); assay: Inactivation of pyruvate decarboxylase (PDC)
T2 construct: made in house; host or cells: E. coli
T2 sequence (P06169 2-563 limits assumed): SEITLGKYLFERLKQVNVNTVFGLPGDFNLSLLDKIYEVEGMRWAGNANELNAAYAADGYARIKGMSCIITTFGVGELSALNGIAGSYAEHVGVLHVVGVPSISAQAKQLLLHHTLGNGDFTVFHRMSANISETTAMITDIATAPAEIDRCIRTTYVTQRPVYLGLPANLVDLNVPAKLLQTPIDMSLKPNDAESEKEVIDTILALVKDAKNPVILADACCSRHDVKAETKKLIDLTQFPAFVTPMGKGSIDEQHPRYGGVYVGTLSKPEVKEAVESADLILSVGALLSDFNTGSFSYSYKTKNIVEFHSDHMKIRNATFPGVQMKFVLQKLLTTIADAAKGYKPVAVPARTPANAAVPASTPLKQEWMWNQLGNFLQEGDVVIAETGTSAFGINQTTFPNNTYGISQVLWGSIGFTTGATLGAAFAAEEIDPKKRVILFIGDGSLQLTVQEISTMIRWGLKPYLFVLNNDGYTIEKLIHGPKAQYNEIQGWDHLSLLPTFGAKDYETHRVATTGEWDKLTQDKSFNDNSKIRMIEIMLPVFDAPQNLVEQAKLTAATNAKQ
Description: Pyruvate decarboxylase from Saccharomyces cerevisiae was overexpressed in E. coli (Baburina et al., 1994), then purified according to Farrenkopf & Jordan (1992). It was assayed spectrophotometrically by coupling to alcohol dehydrogenase (Holzer et al., 1960).

[4] = PDC, catalytic site, read-out: Ki,c

Compound: C#CC(=O)C(=O)O [2-oxo-3-butynoic acid, 2-Oxo-3-butynoic acid]
- inhibition / inactivation of POX (in words) [1]: irreversibly inactivates
- saturation by inhibitor ([1]; POX): yes
- Ki ([1]; POX, read-out: Ki,c): 951 µM
- kinact/KI ([1]; POX): 4.7 M⁻¹ s⁻¹
- kinact ([1]; POX, read-out: ki (converted)): 0.00447 s⁻¹
- [S]0.5 for pyruvate in the presence of / after treatment with inhibitor [2]: 0.262 ± 0.069 mM
- inhibition / inactivation of PDC (in words) [3]: irreversibly inactivates
- saturation by inhibitor ([3]; PDC): no
- Ki [3, 4]: 2110 µM
- Ki ([3]; PDC, read-out: Ki): 1100 µM
- kinact ([3]; PDC, read-out: first order rate constant of inactivation (ki) (converted)): 0.0009 s⁻¹
- kinact ([3]; PDC, read-out: ki (converted)): 0.00141 s⁻¹
- kinact/KI ([3]; read-out: kc/Ki,c, PDC): 0.667 M⁻¹ s⁻¹
- kinact/KI ([3]; read-out: ki/Ki, PDC): 0.817 M⁻¹ s⁻¹

Compound: CCCC#CC(=O)C(=O)O [2-oxo-3-heptynoic acid, 2-Oxo-3-heptynoic acid]
- inhibition / inactivation of POX (in words) [1]: inhibit
- saturation by inhibitor ([1]; POX): no
- kinact/KI ([1]; POX, from linear portion at high inhibitor concentrations (d)): 0.32 M⁻¹ s⁻¹
- kinact/KI ([1]; POX, from linear portion at low inhibitor concentrations (c)): 0.0615 M⁻¹ s⁻¹
- [S]0.5 for pyruvate in the presence of / after treatment with inhibitor [2]: 0.234 ± 0.025 mM
- inhibition / inactivation of PDC (in words) [3]: inhibit
- saturation by inhibitor ([3]; PDC): yes
- saturation by inhibitor ([3]; PDC (+50 mM pyruvamide)): yes
- Ki ([3]; PDC (+50 mM pyruvamide), read-out: Ki,c): 59.7 µM
- Ki ([3]; PDC (+50 mM pyruvamide), read-out: Ki,r): 382 µM
- kinact ([3]; PDC (+50 mM pyruvamide), read-out: ki (converted)): 0.00523 s⁻¹
- Ki [3, 4]: 447 µM
- Ki ([3]; PDC, regulatory site, read-out: Ki,r): 921 µM
- kinact ([3]; PDC, read-out: ki (converted)): 0.01 s⁻¹
- kinact/KI ([3]; read-out: kc/Ki,c, PDC): 22.5 M⁻¹ s⁻¹
- kinact/KI ([3]; read-out: kc/Ki,c, PDC (+50 mM pyruvamide)): 87.7 M⁻¹ s⁻¹
